Measurements taken from the supplement of paper PMC10307832.

Experiments:
Test in all cases: relative viability (nuclei count vs DMSO), 5 days (fraction); higher = more cells survive
Selumetinib + Olaparib = compound: Cn1cnc2c(F)c(Nc3ccc(Br)cc3Cl)c(C(=O)NOCCO)cc21 [Selumetinib] + O=C(c1cc(Cc2n[nH]c(=O)c3ccccc23)ccc1F)N1CCN(C(=O)C2CC2)CC1 [Olaparib] (partner 8 µM)
Method in brief: (§1)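 After 5 days of treatment, lung cancer cells in 1536-well plates were fixed and stained in a single step (final 0.05% Triton X-100, 1% formaldehyde, 1 ug/ml Hoechst) and their nuclei counted on 4× images. Treatment had been applied by pin tool the day after seeding as one drug alone or as a fixed anchor-drug dose with five library-drug doses (not always all listed) in √10 steps. Relative viability is the nuclei count of treated wells divided by that of vehicle wells, and values are medians of duplicate plates.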

Selumetinib + Luminespib = compound: Cn1cnc2c(F)c(Nc3ccc(Br)cc3Cl)c(C(=O)NOCCO)cc21 [Selumetinib] + CCNC(=O)c1noc(-c2cc(C(C)C)c(O)cc2O)c1-c1ccc(CN2CCOCC2)cc1 [Luminespib] (partner 0.01 µM)
Method in brief: as §1

Venetoclax + Vorinostat = compound: CC1(C)CCC(CN2CCN(c3ccc(C(=O)NS(=O)(=O)c4ccc(NCC5CCOCC5)c([N+](=O)[O-])c4)c(Oc4cnc5[nH]ccc5c4)c3)CC2)=C(c2ccc(Cl)cc2)C1 [Venetoclax] + O=C(CCCCCCC(=O)Nc1ccccc1)NO [Vorinostat] (partner 1 µM)
Method in brief: as §1

Selumetinib + Tozasertib = compound: Cn1cnc2c(F)c(Nc3ccc(Br)cc3Cl)c(C(=O)NOCCO)cc21 [Selumetinib] + Cc1cc(Nc2cc(N3CCN(C)CC3)nc(Sc3ccc(NC(=O)C4CC4)cc3)n2)n[nH]1 [Tozasertib] (partner 0.1 µM)
Method in brief: as §1

Cell Line	relative viability (Selumetinib + Olaparib; first compound 0.02 µM)	relative viability (Selumetinib + Olaparib; first compound 0.06325 µM)	relative viability (Selumetinib + Olaparib; first compound 0.2 µM)	relative viability (Selumetinib + Olaparib; first compound 0.6325 µM)	relative viability (Selumetinib + Luminespib; first compound 0.02 µM)	relative viability (Selumetinib + Luminespib; first compound 0.06325 µM)	relative viability (Selumetinib + Luminespib; first compound 0.2 µM)	relative viability (Selumetinib + Luminespib; first compound 0.6325 µM)	relative viability (Venetoclax + Vorinostat; first compound 0.01 µM)	relative viability (Venetoclax + Vorinostat; first compound 0.03162 µM)	relative viability (Venetoclax + Vorinostat; first compound 0.1 µM)	relative viability (Venetoclax + Vorinostat; first compound 0.3162 µM)	relative viability (Venetoclax + Vorinostat; first compound 1 µM)	relative viability (Selumetinib + Tozasertib; first compound 0.02 µM)	relative viability (Selumetinib + Tozasertib; first compound 0.06325 µM)	relative viability (Selumetinib + Tozasertib; first compound 0.2 µM)	relative viability (Selumetinib + Tozasertib; first compound 0.6325 µM)
EMC-BAC-2	0.636	0.657	0.674	0.717	1.19	1.18	1.1	1.12	0.465	0.783	0.352	0.672	0.417	0.383	0.361	0.349	0.387
NCI-H1299	1.08	1.08	1.11	0.932	–	–	–	–	–	–	–	–	–	–	–	–	–
ABC-1	0.885	0.726	0.737	0.768	0.581	0.422	0.607	0.314	1.04	1.24	1.13	1.32	0.939	0.161	0.157	0.139	0.135
NCI-H2170	0.62	0.594	0.649	0.568	0.358	0.845	0.651	0.617	0.685	0.763	0.682	0.804	0.742	0.746	0.848	0.661	0.657
NCI-H1437	0.665	0.58	0.549	0.47	1.15	1.13	1.03	0.782	0.8	0.888	0.808	0.709	0.788	0.319	0.359	0.274	0.2
EBC-1	0.717	0.66	0.599	0.443	–	–	–	–	–	–	–	–	–	–	–	–	–
NCI-H3122	0.609	0.571	0.563	0.565	0.0969	0.0828	0.0994	0.0908	1.11	0.881	0.802	0.916	0.885	0.397	0.351	0.305	0.268
NCI-H2023	0.555	0.467	0.454	0.487	0.947	0.669	0.575	0.575	0.749	0.708	0.73	0.631	0.587	0.362	0.317	0.267	0.253
NCI-H460	0.433	0.384	0.342	0.225	0.0285	0.0384	0.041	0.0306	0.602	0.684	0.653	0.739	0.6	0.379	0.283	0.246	0.152
PC-3 [JPC-3]	1.03	1.07	0.992	0.854	0.721	0.625	0.458	0.442	0.879	1.12	0.929	0.915	0.675	0.991	0.813	0.769	0.655
HCC-15	0.694	0.622	0.575	0.368	0.199	0.19	0.158	0.0809	0.8	0.799	0.812	0.841	0.853	0.372	0.209	0.268	0.158
